According to patent publication US9643967B2, “Pyrrolo[3,2-c]pyridine derivatives as TLR inhibitors” (TAKEDA PHARMACEUTICAL COMPANY LIMITED, priority 2013, dated 2017):
Where two headings read alike, the source gives them in different places.

Target: T1, hTLR9 (Homo sapiens, UniProt Q9NR96)
T1 construct: expressed in transfected cells; host or cells: HEK-Blue-hTLR9 cells (HEK293)
T1 sequence (Q9NR96 26-1032): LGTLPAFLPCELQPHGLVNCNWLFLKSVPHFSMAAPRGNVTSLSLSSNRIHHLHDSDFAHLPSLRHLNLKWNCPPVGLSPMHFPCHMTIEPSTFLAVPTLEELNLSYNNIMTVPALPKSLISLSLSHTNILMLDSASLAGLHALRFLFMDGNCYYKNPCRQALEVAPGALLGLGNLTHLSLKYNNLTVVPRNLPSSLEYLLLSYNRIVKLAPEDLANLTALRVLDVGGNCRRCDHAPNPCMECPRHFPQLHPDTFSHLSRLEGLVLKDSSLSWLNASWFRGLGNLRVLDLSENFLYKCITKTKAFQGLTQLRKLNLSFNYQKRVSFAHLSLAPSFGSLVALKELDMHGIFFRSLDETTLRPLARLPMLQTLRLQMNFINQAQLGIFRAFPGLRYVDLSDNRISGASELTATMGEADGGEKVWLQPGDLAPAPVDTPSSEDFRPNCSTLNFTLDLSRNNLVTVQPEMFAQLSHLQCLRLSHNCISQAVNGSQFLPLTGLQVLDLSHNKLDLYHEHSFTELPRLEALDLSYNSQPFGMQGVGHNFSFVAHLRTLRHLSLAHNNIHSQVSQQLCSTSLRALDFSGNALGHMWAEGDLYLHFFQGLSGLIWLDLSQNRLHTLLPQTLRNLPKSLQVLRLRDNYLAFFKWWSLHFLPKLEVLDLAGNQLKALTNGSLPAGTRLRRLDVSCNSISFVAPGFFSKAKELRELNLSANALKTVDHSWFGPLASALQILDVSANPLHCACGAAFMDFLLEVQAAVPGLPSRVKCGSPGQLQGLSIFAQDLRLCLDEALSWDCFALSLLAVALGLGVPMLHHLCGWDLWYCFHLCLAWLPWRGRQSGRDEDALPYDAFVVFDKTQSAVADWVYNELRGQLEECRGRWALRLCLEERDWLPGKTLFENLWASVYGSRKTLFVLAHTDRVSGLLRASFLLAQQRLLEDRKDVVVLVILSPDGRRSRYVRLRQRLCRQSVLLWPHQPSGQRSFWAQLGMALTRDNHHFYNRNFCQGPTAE
Assay: hTLR9 antagonism (SEAP inhibition assay) in HEK-Blue-hTLR9 (HEK293) cells, ODN-2006 stimulated
Type: cell-based

[1] = HEK-Blue hTLR9, 1 μM, SEAP, HEK-Blue-hTLR9 cells, read-out: hTLR9 inhibitory activity (% at 1 μM)

SMILES | inhibition at 1 µM [1] [%] | inhibition at 1 µM (HEK-Blue hTLR9, read-out: hTLR9 inhibitory activity (% at 1 μM)) [%]
CN1CCN(c2ccc(-c3nc(C4CC4)cc4[nH]c(CN5CCOCC5)cc34)cc2)CC1 [Example A34, 4-[[6-cyclopropyl-4-[4-(4-methylpiperazin-1-yl)phenyl]-1H-pyrrolo[3,2-c]pyridin-2-yl]methyl] morpholine] | 82 | 
CC(C)N1CC=C(c2ccc(-c3nccc4[nH]c(CN5CCOCC5)cc34)cn2)CC1 [Example A52, 4-[[4-[6-(1-isopropyl-3,6-dihydro-2H-pyridin-4-yl)-3-pyridyl]-1H-pyrrolo[3,2-c]pyridin-2-yl]methyl]morpholine] | 84.5 | 
CC(C)N1CCN(c2ccc(-c3nccc4[nH]c(CN5CCOCC5)cc34)cc2)CC1 [Example A1, 4-[[4-[4-(4-isopropylpiperazin-1-yl)phenyl]-1H-pyrrolo[3,2-c]pyridin-2-yl]methyl]morpholine] | 100 | 
CN1CCN(c2ccc(-c3nccc4[nH]c(CN5CCC(F)CC5)cc34)cc2)CC1 [Example A25, 2-[(4-fluoro-1-piperidyl)methyl]-4-[4-(4-methylpiperazin-1-yl)phenyl] - 1H-pyrrolo[3,2-c]pyridine] | 95.2 | 
CC(C)N1CCN(c2cccc(-c3nccc4[nH]c(CN5CCOCC5)cc34)c2)CC1 [Example A57, 4-[[4-[3-(4-isopropylpiperazin-1-yl)phenyl]-1H-pyrrolo[3,2-c]pyridin-2-yl]methyl]morpholine] | 96.9 | 
Cc1nc(-c2ccc(N3CCN(C)CC3)cc2)c2cc(CN3CCOCC3)[nH]c2c1C [Example A37, 4-[[6,7-dimethyl-4-[4-(4-methylpiperazin-1-yl)phenyl]-1H-pyrrolo[3,2-c]pyridin-2-yl]methyl] morpholine] | 100 | 
CN1CCC(Oc2ccc(-c3nccc4[nH]c(CN5CCOCC5)cc34)cc2)CC1 [Example A62, 4-[[4-[4-[(1-methyl-4-piperidyl)oxy]phenyl]-1H-pyrrolo[3,2-c]pyridin-2-yl]methyl]morpholine] | 98.2 | 
Cc1cc2[nH]c(CN3CCC4(CC3)CC(C)C4)cc2c(-c2ccc(N3CCN(C(C)C)CC3)cc2)n1 [Example A30, 4-[4-(4-isopropylpiperazin-1-yl)phenyl]-6-methyl-2-[(2-methyl-7-azaspiro[3.5]nonan-7-yl)methyl]-1H-pyrrolo[3,2-c]pyridine] | 96.7 | 
CC(C)N1CCN(c2ccc(-c3nccc4[nH]c(C(=O)N5CCOCC5)cc34)cc2)CC1 [Example A82, [4-[4-(4-isopropylpiperazin-1-yl)phenyl]-1H-pyrrolo[3,2-c]pyridin-2-yl]-morpholino-methanone] |  | 98
CC(C)N1CCN(c2ccc(-c3nccc4[nH]c(CN5CC(O)C5)cc34)cc2)CC1 [Example A72, 1-[[4-[4-(4-isopropylpiperazin-1-yl)phenyl]-1H-pyrrolo[3,2-c]pyridin-2-yl]methyl]azetidin-3-ol] | 100 | 
CC(C)N1CCN(c2ccc(-c3nccc4[nH]c(CN5CCCCC5)cc34)cc2)CC1 [Example A17, 4-[4-(4-isopropylpiperazin-1-yl)phenyl]-2-(1-piperidylmethyl)-1H-pyrrolo[3,2-c]pyridine] | 100 | 
c1cc2[nH]c(CN3CCOCC3)cc2c(-c2ccc(OC3CCNCC3)cc2)n1 [Example A49, 4-[[4-[4-(4-piperidyloxy)phenyl]-1H-pyrrolo[3,2-c]pyridin-2-yl]methyl]morpholine] | 91 | 
CC(C)N1CCC(n2cc(-c3nccc4[nH]c(CN5CCOCC5)cc34)cn2)CC1 [Example A54, 4-[[4-[1-(1-isopropyl-4-piperidyl)pyrazol-4-yl]-1H-pyrrolo[3,2-c]pyridin-2-yl]methyl]morpholine] | 95.4 | 
CC(C)N1CCC(Oc2ccc(-c3nccc4[nH]c(CN5CCOCC5)cc34)cc2)CC1 [Example A56, 4-[[4-[4-[(1-isopropyl-4-piperidyl)oxy]phenyl]-1H-pyrrolo[3,2-c]pyridin-2-yl]methyl]morpholine] | 99.5 | 
CCN1CCN(c2ccc(-c3nc(C)c(C)c4[nH]c(CN5CCOCC5)cc34)cc2)CC1 [Example A38, 4-[[4-[4-(4-ethylpiperazin-1-yl)phenyl]-6,7-dimethyl-1H-pyrrolo[3,2-c]pyridin-2-yl]methyl] morpholine] | 98.5 | 

Second part, led by results:

inhibition at 1 µM [1] [%] | SMILES | inhibition at 1 µM (HEK-Blue hTLR9, read-out: hTLR9 inhibitory activity (% at 1 μM)) [%]
93.7 | CCN1CCN(c2ccc(-c3nc(C)c(C)c4[nH]c(CCN5CCOCC5)cc34)cc2)CC1 [Example B8, 4-[2-[4-[4-(4-ethylpiperazin-1-yl)phenyl]-6,7-dimethyl-1H-pyrrolo[3,2-c]pyridin-2-yl]ethyl]morpholine] | 
93.1 | Cc1nc(-c2ccc(N3CCN(C(C)C)CC3)cc2)c2cc(CCN3CCCC3)[nH]c2c1C [Example B10, 4-[4-(4-isopropylpiperazin-1-yl)phenyl]-6,7-dimethyl-2-(2-pyrrolidin-1-ylethyl)-1H-pyrrolo[3,2-c]pyridine] | 
78 | Cc1cc2[nH]c(CCN3CCCCC3)cc2c(-c2ccc(N3CCN(C(C)C)CC3)cc2)n1 [Example B5, 4-[4-(4-isopropylpiperazin-1-yl)phenyl]-6-methyl-2-[2-(1-piperidyl)ethyl]-1H-pyrrolo[3,2-c]pyridine] | 
99.3 | Cc1cc2c(cc(CCN3CCOCC3)n2C)c(-c2ccc(N3CCN(C(C)C)CC3)c(C(F)(F)F)c2)n1 [Example B18, 4-[2-[4-[4-(4-isopropylpiperazin-1-yl)-3-(trifluoromethyl)phenyl]-1,6-dimethyl-pyrrolo[3,2-c]pyridin-2-yl]ethyl]morpholine] | 
100 | CC(C)N1CCN(c2ccc(-c3nccc4[nH]c(CCN5CCOCC5)cc34)cc2)CC1 [Example B1, 4-[2-[4-[4-(4-isopropylpiperazin-1-yl)phenyl]-1H-pyrrolo[3,2-c]pyridin-2-yl]ethyl]morpholine] | 
88.7 | Cc1cc2c(cc(CCN3CCOCC3)n2C)c(-c2ccc(N3CCN(C(C)C)CC3)c(F)c2)n1 [Example B14, 4-[2-[4-[3-fluoro-4-(4-isopropylpiperazin-1-yl)phenyl]-1,6-dimethyl-pyrrolo[3,2-c]pyridin-2-yl]ethyl]morpholine] | 
100 | Cc1cc2c(cc(CCN3CCOCC3)n2C)c(-c2ccc(N3CCN(C(C)C)CC3)cc2F)n1 [Example B19, 4-[2-[4-[2-fluoro-4-(4-isopropylpiperazin-1-yl)phenyl]-1,6-dimethyl-pyrrolo[3,2-c]pyridin-2-yl]ethyl]morpholine] | 
